According to patent US4665083A, “Iminothiazolidine derivatives” (priority 1984, dated 1987):

Legend:
in vivo = details: mouse, mice, oral, 7 days observation, Litchfield-Wilcoxon
Protocol: (1) Acute toxicity on mice
The acute toxicity is determined on mice of both sex (CFLP breed, body weight 18 to 22 g). For each dosis 6 animals are employed. The compounds tested are administered orally in a volume of 20 ml/kg body weight. After the administration the animals are observed for 7 days. During this period the animals are fed with standard mouse feed and water ad libitum. The toxicity values are determined according to Litchfield-Wilcoxon's method.

Tetrabenazine ptosis = test: animal or person; format: in vivo; details: for Therapeutical index (tetrabenazine ptosis antagonism): LD50 and ED50 tetrabenazine ptosis, mice; for ED50: Mus musculus, po, read-out: Tetrabenazine ptosis antagonism ED50
Protocol: (2) Tetrabenazine ptosis antagonism on mice
The tetrabenazine ptosis antagonism of the compounds are tested on groups consisting of 10 mice each. […] 30 minutes after the introduction of the active agent or the vehicle, 50 mg/kg of tetrabenazine (3-isobutyl-9,10-[…]-1,2,3,4,6,7-hexahydrobenzo[a]quinolizine-2-one) are administered, intraperitoneally, and the animals with ptosis are counted 30, 60, 90 and 120 minutes after the administration of the tetrabenazine.
Evaluation: the average ptosis value is calculated in each group, and the deviation from the average obtained for the control group (inhibition) is given in percentage. From the data obtained ED50 values are calculated.

Reserpine ptosis = test: animal or person; format: in vivo
Protocol: (3) Reserpine ptosis antagonism on mice
Each group consisting of 10 mice are treated with 6 mg/kg of reserpine, subcutaneously. […] The animals with ptosis are counted 60 and 120 minutes after the administration of the compounds to be tested. Evaluation is carried out as given under point (2) above.

yohimbine toxicity = test: animal or person; format: in vivo; details: for Therapeutical index (potentiation of yohimbine toxicity): LD50 and ED50 yohimbine toxicity, mice; for ED50: Mus musculus, ip, read-out: Potentiation of yohimbine toxicity ED50
Protocol: (4) Yohimbine toxicity test on mice.
The examination is performed according to Quinton's method. Each group of animals consisting of 10 mice are treated with the compounds to be tested and the vehicle without active agent, respectively. After one hour a sublethal dosage of yohimbine in a volume of 20 ml/kg body weight is administered to the test groups, intraperitoneally. The number of the dead animals is recorded 1 and 24 hours after the administration of yohimbine.

nicotine lethality = test: Inhibition of nicotine spasm / nicotine lethality; format: in vivo, mice; details: mice; for Therapeutical index (inhibition of nicotine lethality): LD50 and ED50 nicotine lethality; for ED50: Mus musculus, oral, 1 hour before 1.4 mg/kg i.v. nicotine, read-out: Inhibition of nicotine lethality ED50
Protocol: (5) Inhibition of nicotine spasm
The test is carried out on mice according to Stone.

pentatetrazole spasm = test: animal or person; format: in vivo; details: for Therapeutical index (inhibition of pentatetrazole spasm): LD50 and ED50 pentatetrazole spasm, mice; for ED50: Mus musculus, po, read-out: Inhibition of pentatetrazole spasm ED50
Protocol: (6) Inhibition of pentatetrazole spasm
The test is performed on mice according to a modified method of Banziger and Hane.

maximum electroshock = test: animal or person; format: in vivo; details: for Therapeutical index (inhibition of maximum electroshock): LD50 and ED50 electroshock, mice; for ED50: Mus musculus, po, read-out: Inhibition of maximum electroshock ED50
Protocol: (7) Maximum inhibition of electroshock
The examination is carried out on mice weighing 20 to 25 g according to Swinyard. Electroshocks having the parameters of 50 Hz, 45 mA and 0.4 sec are employed by means of corneal electrodes. The complete inhibition of the tonic spasm of the lower limb extensor is taken as the criterium of the anticonvulsive action.

intestinal peristalsis = test: animal or person; format: in vivo
Protocol: (8) Antiperistaltic effect on mice
The antiperistaltic effect of the compounds is examined on mice weighing 20 to 25 g according to the method of Stickney and co-workers. Each dosis of the compound to be tested is administered, orally, 60 minutes prior to the administration of a 10 percent carbon suspension. […] 20 minutes after the administration of the carbon suspension, the animals are sacrificed, and the length of the entire small intestine as well as that of the small intestine filled with carbon are determined. The inhibition in relation to the control is calculated in percentage. […] From the values thus-transformed ED50 values are calculated.

acetic acid writhing = test: animal or person; format: in vivo; details: for Therapeutical index (analgesic effect, writhing test): LD50 and ED50 writhing test, mice; for ED50: Mus musculus, ip, read-out: Analgesic effect (writhing test) ED50
Protocol: (9) Analgesic effect on mice (writhing test)
The test is carried out on mice according to the modified method of Newbould. 0.75 percent acetic acid is administered to the animals in a volume of 20 ml/kg, intraperitoneally, and the characteristic "writhing reactions" are counted for a period of 5 minutes, starting from the fifth minute after challenge. […] The inhibition relative to the control group is evaluated in percentage.

narcosis = test: Potentiation of narcosis; details: for Therapeutical index (potentiation of narcosis): LD50 and ED50 narcosis; for ED50: read-out: Potentiation of narcosis ED50

| Structure (SMILES) | LD50 at 168 h (in vivo) | Therapeutical index (tetrabenazine ptosis antagonism) (Tetrabenazine ptosis) | ED50 (Tetrabenazine ptosis) | Therapeutical index (reserpine ptosis antagonism) (Reserpine ptosis; LD50 and ED50 reserpine ptosis, mice) | ED50 (Reserpine ptosis; Mus musculus, sc, 1 h, read-out: Reserpine ptosis antagonism ED50) | Therapeutical index (potentiation of yohimbine toxicity) (yohimbine toxicity) | ED50 (yohimbine toxicity) | Therapeutical index (inhibition of nicotine lethality) (nicotine lethality) | ED50 (nicotine lethality) | Therapeutical index (inhibition of pentatetrazole spasm) (pentatetrazole spasm) | ED50 (pentatetrazole spasm) | Therapeutical index (inhibition of maximum electroshock) (maximum electroshock) | ED50 (maximum electroshock) | Therapeutical index (inhibition of intestinal peristalsis) (intestinal peristalsis; LD50 and ED50 intestinal peristalsis, mice) | ED50 (intestinal peristalsis; Mus musculus, po, read-out: Inhibition of intestinal peristalsis ED50) | Therapeutical index (analgesic effect, writhing test) (acetic acid writhing) | ED50 (acetic acid writhing) | Therapeutical index (potentiation of narcosis) (narcosis) | ED50 (narcosis) |
| --- | --- | --- | --- | --- | --- | --- | --- | --- | --- | --- | --- | --- | --- | --- | --- | --- | --- | --- | --- |
| CCS(=O)(=O)O.CCS(=O)(=O)O.N=C1SCCN1c1ccc(Cl)cc1N [Compound 8, 3-(2-amino-4-chlorophenyl)-2-iminothiazolidine di(ethanesulfonate)] | 1000 mg/kg | 667 | 1.5 mg/kg | 50 | 20 mg/kg | 45.5 | 22 mg/kg | 83.3 | 12 mg/kg | 71.4 | 14 mg/kg | 12.5 | 80 mg/kg | 10.5 | 95 mg/kg | 5.9 | 170 mg/kg | – | – |
| CC1CN(c2ccc(Cl)cc2N)C(=N)S1.CCS(=O)(=O)O (stereo not shown) [Compound 12, 3-(2-amino-4-chlorophenyl)-2-imino-5-methylthiazolidine ethanesulfonate] | – | 83 | 7.2 mg/kg | – | – | 13.3 | 45 mg/kg | 100 | 6 mg/kg | 40 | 15 mg/kg | 30 | 12 mg/kg | – | – | 17.7 | 34 mg/kg | 14.0 | 41 mg/kg |
| CCCC(C)(COC(N)=O)COC(N)=O [Meprobamate, reference compound] | 1100 mg/kg | – | – | – | – | – | – | – | – | – | – | – | – | – | – | – | – | 4.2 | 260 mg/kg |
